Data taken from PubChem BioAssay (NCI).
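Five concentrations, 48 hours, 96-well plates. The concentration for 50% growth inhibition is given as GI50. TGI: total growth inhibition.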

Tests used:
Assay in all cases: growth of human tumour cells (NCI), 48 h
A549 NSCLC = tested on: A549 NSCLC
ACHN renal = tested on: ACHN renal
BT-549 breast = tested on: BT-549 breast
CAKI-1 renal = tested on: CAKI-1 renal
CCRF-CEM leukemia = tested on: CCRF-CEM leukemia
COLO 205 colon = tested on: COLO 205 colon
DU-145 prostate = tested on: DU-145 prostate
EKVX NSCLC = tested on: EKVX NSCLC
HCT-116 colon = tested on: HCT-116 colon
HCT-15 colon = tested on: HCT-15 colon
HL-60(TB) leukemia = tested on: HL-60(TB) leukemia
HOP-62 NSCLC = tested on: HOP-62 NSCLC
HS 578T breast = tested on: HS 578T breast
HT29 colon = tested on: HT29 colon
IGROV1 ovarian = tested on: IGROV1 ovarian
K-562 leukemia = tested on: K-562 leukemia
KM12 colon = tested on: KM12 colon
LOX IMVI melanoma = tested on: LOX IMVI melanoma
M14 melanoma = tested on: M14 melanoma
MALME-3M melanoma = tested on: MALME-3M melanoma
MCF7 breast = tested on: MCF7 breast
MDA-MB-231 breast = tested on: MDA-MB-231 breast
MDA-MB-435 = tested on: MDA-MB-435
MOLT-4 leukemia = tested on: MOLT-4 leukemia
NCI-H23 lung = tested on: NCI-H23 lung
NCI-H460 lung = tested on: NCI-H460 lung
NCI/ADR-RES ovarian = tested on: NCI/ADR-RES ovarian
OVCAR-3 ovarian = tested on: OVCAR-3 ovarian
OVCAR-4 ovarian = tested on: OVCAR-4 ovarian
OVCAR-5 ovarian = tested on: OVCAR-5 ovarian
OVCAR-8 ovarian = tested on: OVCAR-8 ovarian
PC-3 prostate = tested on: PC-3 prostate
RPMI-8226 leukemia = tested on: RPMI-8226 leukemia
RXF 393 renal = tested on: RXF 393 renal
SF-268 CNS = tested on: SF-268 CNS
SF-295 CNS = tested on: SF-295 CNS
SF-539 CNS = tested on: SF-539 CNS
SK-MEL-28 melanoma = tested on: SK-MEL-28 melanoma
SK-MEL-5 melanoma = tested on: SK-MEL-5 melanoma
SK-OV-3 ovarian = tested on: SK-OV-3 ovarian
SN12C renal = tested on: SN12C renal
SNB-19 CNS = tested on: SNB-19 CNS
SNB-75 CNS = tested on: SNB-75 CNS
SR leukemia = tested on: SR leukemia
SW-620 colon = tested on: SW-620 colon
T-47D breast = tested on: T-47D breast
TK-10 renal = tested on: TK-10 renal
U251 CNS = tested on: U251 CNS
UACC-257 melanoma = tested on: UACC-257 melanoma
UACC-62 melanoma = tested on: UACC-62 melanoma
UO-31 renal = tested on: UO-31 renal
786-0 renal = tested on: 786-0 renal
HCC-2998 colon = tested on: HCC-2998 colon
HOP-92 NSCLC = tested on: HOP-92 NSCLC
NCI-H226 lung = tested on: NCI-H226 lung
NCI-H522 lung = tested on: NCI-H522 lung
SK-MEL-2 melanoma = tested on: SK-MEL-2 melanoma

SMILES: CC(=O)c1c(-c2ccco2)c(C#N)c(=S)n(C2OC(CO)C(O)C(O)C2O)c1-c1ccccc1 (stereo not drawn)
- TGI (A549 NSCLC): > 100 µM
- TGI (ACHN renal): > 100 µM
- TGI (BT-549 breast): > 100 µM
- TGI (CAKI-1 renal): > 100 µM
- TGI (CCRF-CEM leukemia): > 100 µM
- TGI (COLO 205 colon): > 100 µM
- TGI (DU-145 prostate): > 100 µM
- TGI (EKVX NSCLC): > 100 µM
- TGI (HCT-116 colon): > 100 µM
- TGI (HCT-15 colon): > 100 µM
- TGI (HL-60(TB) leukemia): 85.9 µM
- TGI (HOP-62 NSCLC): > 100 µM
- TGI (HS 578T breast): > 100 µM
- TGI (HT29 colon): > 100 µM
- TGI (IGROV1 ovarian): > 100 µM
- TGI (K-562 leukemia): > 100 µM
- TGI (KM12 colon): > 100 µM
- TGI (LOX IMVI melanoma): > 100 µM
- TGI (M14 melanoma): > 100 µM
- TGI (MALME-3M melanoma): > 100 µM
- TGI (MCF7 breast): > 100 µM
- TGI (MDA-MB-231 breast): > 100 µM
- TGI (MDA-MB-435): > 100 µM
- TGI (MOLT-4 leukemia): > 100 µM
- TGI (NCI-H23 lung): > 100 µM
- TGI (NCI-H460 lung): > 100 µM
- TGI (NCI/ADR-RES ovarian): > 100 µM
- TGI (OVCAR-3 ovarian): > 100 µM
- TGI (OVCAR-4 ovarian): > 100 µM
- TGI (OVCAR-5 ovarian): > 100 µM
- TGI (OVCAR-8 ovarian): > 100 µM
- TGI (PC-3 prostate): > 100 µM
- TGI (RPMI-8226 leukemia): > 100 µM
- TGI (RXF 393 renal): > 100 µM
- TGI (SF-268 CNS): > 100 µM
- TGI (SF-295 CNS): > 100 µM
- TGI (SF-539 CNS): > 100 µM
- TGI (SK-MEL-28 melanoma): > 100 µM
- TGI (SK-MEL-5 melanoma): > 100 µM
- TGI (SK-OV-3 ovarian): > 100 µM
- TGI (SN12C renal): > 100 µM
- TGI (SNB-19 CNS): 59.7 µM
- TGI (SNB-75 CNS): > 100 µM
- TGI (SR leukemia): > 100 µM
- TGI (SW-620 colon): > 100 µM
- TGI (T-47D breast): > 100 µM
- TGI (TK-10 renal): > 100 µM
- TGI (U251 CNS): > 100 µM
- TGI (UACC-257 melanoma): > 100 µM
- TGI (UACC-62 melanoma): > 100 µM
- TGI (UO-31 renal): > 100 µM

SMILES: CCN(CC)CCn1c(N)c(-c2nc3ccccc3n2C)c2nc(C#N)c(C#N)nc21
- GI50 (786-0 renal): 1.01 µM
- TGI (786-0 renal): 2.91 µM
- GI50 (A549 NSCLC): 3.2 µM
- TGI (A549 NSCLC): 13.7 µM
- GI50 (ACHN renal): 0.696 µM
- TGI (ACHN renal): 1.53 µM
- GI50 (BT-549 breast): 7.64 µM
- TGI (BT-549 breast): 18.3 µM
- GI50 (CAKI-1 renal): 3.7 µM
- TGI (CAKI-1 renal): 11.2 µM
- GI50 (CCRF-CEM leukemia): 4.25 µM
- TGI (CCRF-CEM leukemia): 37.9 µM
- GI50 (COLO 205 colon): 3.84 µM
- TGI (COLO 205 colon): > 28.1 µM
- GI50 (DU-145 prostate): 3.93 µM
- TGI (DU-145 prostate): 13 µM
- GI50 (EKVX NSCLC): 7.1 µM
- TGI (EKVX NSCLC): 20.5 µM
- GI50 (HCC-2998 colon): 0.696 µM
- TGI (HCC-2998 colon): 1.41 µM
- GI50 (HCT-116 colon): 1.94 µM
- TGI (HCT-116 colon): > 18.5 µM
- GI50 (HCT-15 colon): 5.9 µM
- TGI (HCT-15 colon): > 27.1 µM
- GI50 (HL-60(TB) leukemia): 2.84 µM
- TGI (HL-60(TB) leukemia): > 50 µM
- GI50 (HOP-62 NSCLC): 2.65 µM
- TGI (HOP-62 NSCLC): 11 µM
- GI50 (HOP-92 NSCLC): 2.5 µM
- TGI (HOP-92 NSCLC): 12.1 µM
- GI50 (HS 578T breast): 2.52 µM
- TGI (HS 578T breast): 11.7 µM
- GI50 (IGROV1 ovarian): 1.3 µM
- TGI (IGROV1 ovarian): 14.3 µM
- GI50 (K-562 leukemia): 3.31 µM
- TGI (K-562 leukemia): > 42.2 µM
- GI50 (KM12 colon): 5.65 µM
- TGI (KM12 colon): 20.3 µM
- GI50 (LOX IMVI melanoma): 0.97 µM
- TGI (LOX IMVI melanoma): 2.62 µM
- GI50 (M14 melanoma): 7.21 µM
- TGI (M14 melanoma): 30.8 µM
- GI50 (MCF7 breast): 3.08 µM
- TGI (MCF7 breast): > 50 µM
- GI50 (MDA-MB-231 breast): 0.295 µM
- TGI (MDA-MB-231 breast): 1.71 µM
- GI50 (MDA-MB-435): 6.23 µM
- TGI (MDA-MB-435): > 32.4 µM
- GI50 (MOLT-4 leukemia): 1.81 µM
- TGI (MOLT-4 leukemia): 11.1 µM
- GI50 (NCI-H226 lung): 9.57 µM
- TGI (NCI-H226 lung): 39.8 µM
- GI50 (NCI-H23 lung): 1.7 µM
- TGI (NCI-H23 lung): 16.2 µM
- GI50 (NCI-H460 lung): 4.58 µM
- TGI (NCI-H460 lung): 38.5 µM
- GI50 (NCI-H522 lung): 3.72 µM
- TGI (NCI-H522 lung): 24.9 µM
- GI50 (NCI/ADR-RES ovarian): 3.1 µM
- TGI (NCI/ADR-RES ovarian): 8.86 µM
- GI50 (OVCAR-3 ovarian): 1.52 µM
- TGI (OVCAR-3 ovarian): 7.31 µM
- GI50 (OVCAR-4 ovarian): 1.86 µM
- TGI (OVCAR-4 ovarian): 9.91 µM
- GI50 (OVCAR-5 ovarian): 3.96 µM
- TGI (OVCAR-5 ovarian): 12.7 µM
- GI50 (OVCAR-8 ovarian): 3.43 µM
- TGI (OVCAR-8 ovarian): 13.8 µM
- GI50 (PC-3 prostate): 1.8 µM
- TGI (PC-3 prostate): > 19.5 µM
- GI50 (RPMI-8226 leukemia): 1.97 µM
- TGI (RPMI-8226 leukemia): > 12.1 µM
- GI50 (RXF 393 renal): 1.98 µM
- TGI (RXF 393 renal): 4.46 µM
- GI50 (SF-268 CNS): 3.64 µM
- TGI (SF-268 CNS): 22.4 µM
- GI50 (SF-295 CNS): 5.62 µM
- TGI (SF-295 CNS): 15.6 µM
- GI50 (SF-539 CNS): 2.8 µM
- TGI (SF-539 CNS): 9.43 µM
- GI50 (SK-MEL-2 melanoma): 6.28 µM
- TGI (SK-MEL-2 melanoma): 25.6 µM
- GI50 (SK-MEL-28 melanoma): 0.6 µM
- TGI (SK-MEL-28 melanoma): 3.02 µM
- GI50 (SK-MEL-5 melanoma): 3.04 µM
- TGI (SK-MEL-5 melanoma): 12.8 µM
- GI50 (SK-OV-3 ovarian): 5.21 µM
- TGI (SK-OV-3 ovarian): 14.3 µM
- GI50 (SN12C renal): 3.09 µM
- TGI (SN12C renal): 14.2 µM
- GI50 (SNB-19 CNS): 7.3 µM
- TGI (SNB-19 CNS): 21.5 µM
- GI50 (SR leukemia): 12.2 µM
- TGI (SR leukemia): > 50 µM
- GI50 (SW-620 colon): 2.59 µM
- TGI (SW-620 colon): > 21.8 µM
- GI50 (T-47D breast): 1.68 µM
- GI50 (TK-10 renal): 7.16 µM
- TGI (TK-10 renal): 14.2 µM
- GI50 (U251 CNS): 1.27 µM
- TGI (U251 CNS): 4.06 µM
- GI50 (UACC-257 melanoma): 2.23 µM
- TGI (UACC-257 melanoma): 10.3 µM
- GI50 (UACC-62 melanoma): 3.44 µM
- TGI (UACC-62 melanoma): 15 µM
- GI50 (UO-31 renal): 2.06 µM
- TGI (UO-31 renal): 6.61 µM
